Assay [1] addresses T1, human N-type Ca channel (Homo sapiens, UniProt Q00975). The assay is described as follows: Calcium influx assay (FDSS), KCl depolarization, Fluo8 dye. Format: cell-based. The arrangement: host or cells: HEK 293. The conditions noted are these: HEK 293 cells expressing human N-type Ca channel; 100 mM KCl; read-out: N Type IC50 Data FDSS. The procedure: All cell culture reagents were procured from HyClone and other reagents were from Fisher. Recombinant HEK 293 cells expressing human N-type Ca channel (Millipore) were maintained in DMEM F12 containing 10% FBS and selection antibiotics at 37 °C in 5% CO2.
Cells were incubated at 30 °C in 5% CO2 overnight. The medium was removed and cells were loaded with Fluo8 dye (AAT Bioquest) at 37 °C and 30 °C, 30 min each in darkness. Cells were washed four times with wash buffer (16 mM Herep pH 7.2, 2 mM CaCl2, 1 mM MgCl2, 5 mM glucose, 140 mM choline chloride and 2 mM KCl) leaving 15 µL buffer after the last wash. Compounds of Formula (I), serially diluted, were added to the cell plate. The plates were incubated in darkness for 15 min. Cells were depolarized with 100 mM KCl and Ca influx was measured.

Assay [2] concerns the target T1, human N-type Ca channel. The assay is described as follows: Electrophysiological response, QPatch (depolarization -80 mV to +20 mV). The conditions noted are these: for inhibition at 10 µM: read-out: Qpatch Pulse=1 (percent inhibition).
Experimental: The recombinant cell line described above was used in the measurement of electrophysiological properties with QPatch (Sophion). Cells were maintained in culture as mentioned above. Prior to the experiment, the flasks were moved to 30 °C and incubated for 48-72 hrs. On the day of assaying, cells were detached and harvested. The cell pellet was re-suspended in SMF4HEK (HyClone)/25mM HEPS at 2-5 million/ mL and placed on the QStirrer of the QPatch for 30-60 min prior to the start of the assay. […] Microtiter-Plate/Reference Buffer contained 140 mM TEA-Cl, 10mM BaCl2, 0.8 mM MgCl2, 10 mM HEPES pH ∼7.4 adjusted with TEA-OH/HCl, and ∼300mOsm. Cells were transferred to a QPatch 48 plate and gigaseal was formed. The plate was perfused with intracellular and extracellular buffer. […] In brief, cells were depolarized from resting potential of -80 mV to +20 mV and current was recorded. Data was plotted as percent inhibition vs concentration of the compound and IC50 values were generated using Graphpad Prism non-linear regression analysis.
[3] abbreviates: N Type IC50 Data Qpatch Pulse=1, Pulse=1, concentration range 0.01-1 µM.
The mark [4] stands for this setting: read-out: N Type IC50 Data Qpatch Pulse=15, Pulse=15, concentration range 0.01-1 µM.
The mark [5] stands for this setting: read-out: N Type IC50 Data Qpatch Pulse=1, Pulse=1, concentration range 0.01-1 µM.
[6] abbreviates: N Type IC50 Data Qpatch Pulse=1, Pulse=1, concentration range 0.3-10 µM.
The mark [7] stands for this setting: N Type IC50 Data Qpatch Pulse=15, Pulse=15, concentration range 0.3-10 µM.
The mark [8] stands for this setting: N Type IC50 Data Qpatch Pulse=15, Pulse=15, concentration range 0.01-1 µM.

T1 sequence (Q00975 whole entry): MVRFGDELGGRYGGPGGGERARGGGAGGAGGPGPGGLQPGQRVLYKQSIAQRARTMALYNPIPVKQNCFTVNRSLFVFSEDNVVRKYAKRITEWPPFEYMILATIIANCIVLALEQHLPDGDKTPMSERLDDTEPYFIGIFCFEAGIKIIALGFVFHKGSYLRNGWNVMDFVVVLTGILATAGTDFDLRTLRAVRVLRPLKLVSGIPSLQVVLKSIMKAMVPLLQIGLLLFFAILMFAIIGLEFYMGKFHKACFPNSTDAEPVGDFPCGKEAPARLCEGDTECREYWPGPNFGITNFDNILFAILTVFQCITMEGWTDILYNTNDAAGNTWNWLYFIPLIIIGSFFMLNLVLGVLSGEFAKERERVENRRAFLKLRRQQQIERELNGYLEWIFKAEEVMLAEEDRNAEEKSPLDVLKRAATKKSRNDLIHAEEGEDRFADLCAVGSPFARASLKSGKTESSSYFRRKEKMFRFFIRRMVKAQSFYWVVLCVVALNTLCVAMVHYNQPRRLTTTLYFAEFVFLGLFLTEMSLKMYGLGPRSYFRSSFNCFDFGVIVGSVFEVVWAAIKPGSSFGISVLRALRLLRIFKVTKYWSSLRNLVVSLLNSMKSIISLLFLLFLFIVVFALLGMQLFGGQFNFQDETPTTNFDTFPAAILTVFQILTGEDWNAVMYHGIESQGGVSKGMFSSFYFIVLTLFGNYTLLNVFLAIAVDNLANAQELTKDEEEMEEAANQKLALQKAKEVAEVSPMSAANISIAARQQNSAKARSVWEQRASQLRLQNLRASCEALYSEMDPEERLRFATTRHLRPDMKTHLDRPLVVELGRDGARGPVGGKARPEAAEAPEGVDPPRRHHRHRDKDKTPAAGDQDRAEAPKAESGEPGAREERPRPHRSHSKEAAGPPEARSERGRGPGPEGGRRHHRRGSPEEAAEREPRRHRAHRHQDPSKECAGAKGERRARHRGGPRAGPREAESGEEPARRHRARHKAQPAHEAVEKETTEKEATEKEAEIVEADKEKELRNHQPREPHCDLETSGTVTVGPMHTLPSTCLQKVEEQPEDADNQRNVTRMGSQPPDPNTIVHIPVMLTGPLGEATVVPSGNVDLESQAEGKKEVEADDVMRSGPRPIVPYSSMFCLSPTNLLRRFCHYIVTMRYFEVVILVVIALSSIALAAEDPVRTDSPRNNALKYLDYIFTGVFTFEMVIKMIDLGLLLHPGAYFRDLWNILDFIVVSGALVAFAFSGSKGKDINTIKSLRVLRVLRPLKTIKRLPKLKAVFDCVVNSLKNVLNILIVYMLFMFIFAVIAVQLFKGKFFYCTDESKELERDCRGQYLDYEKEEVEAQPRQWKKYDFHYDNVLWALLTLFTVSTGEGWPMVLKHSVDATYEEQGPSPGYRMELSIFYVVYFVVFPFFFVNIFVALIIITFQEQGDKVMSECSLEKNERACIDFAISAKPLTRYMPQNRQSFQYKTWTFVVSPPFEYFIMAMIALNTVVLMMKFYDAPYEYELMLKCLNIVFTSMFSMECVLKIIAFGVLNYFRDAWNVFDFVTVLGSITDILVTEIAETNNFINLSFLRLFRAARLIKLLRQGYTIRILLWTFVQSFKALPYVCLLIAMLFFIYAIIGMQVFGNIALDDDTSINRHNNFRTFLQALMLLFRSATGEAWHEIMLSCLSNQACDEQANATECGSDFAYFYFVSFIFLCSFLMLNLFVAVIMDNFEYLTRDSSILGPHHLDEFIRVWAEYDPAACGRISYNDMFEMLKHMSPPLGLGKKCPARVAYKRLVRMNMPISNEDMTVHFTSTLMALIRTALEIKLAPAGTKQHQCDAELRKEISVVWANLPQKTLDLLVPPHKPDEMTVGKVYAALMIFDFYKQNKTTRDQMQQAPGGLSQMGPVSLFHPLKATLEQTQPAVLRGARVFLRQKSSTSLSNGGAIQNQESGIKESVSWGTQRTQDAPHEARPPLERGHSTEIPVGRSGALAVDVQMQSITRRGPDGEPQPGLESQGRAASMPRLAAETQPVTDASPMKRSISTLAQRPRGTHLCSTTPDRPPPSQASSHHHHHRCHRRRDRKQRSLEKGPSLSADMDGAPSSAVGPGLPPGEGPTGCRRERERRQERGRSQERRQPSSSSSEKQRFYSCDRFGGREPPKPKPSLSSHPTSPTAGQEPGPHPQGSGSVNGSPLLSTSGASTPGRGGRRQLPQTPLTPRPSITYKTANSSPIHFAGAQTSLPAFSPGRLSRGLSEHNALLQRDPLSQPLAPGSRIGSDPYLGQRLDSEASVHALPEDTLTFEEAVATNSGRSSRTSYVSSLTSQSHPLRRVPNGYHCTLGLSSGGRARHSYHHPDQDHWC
T1 sequence (P54284 whole entry partner): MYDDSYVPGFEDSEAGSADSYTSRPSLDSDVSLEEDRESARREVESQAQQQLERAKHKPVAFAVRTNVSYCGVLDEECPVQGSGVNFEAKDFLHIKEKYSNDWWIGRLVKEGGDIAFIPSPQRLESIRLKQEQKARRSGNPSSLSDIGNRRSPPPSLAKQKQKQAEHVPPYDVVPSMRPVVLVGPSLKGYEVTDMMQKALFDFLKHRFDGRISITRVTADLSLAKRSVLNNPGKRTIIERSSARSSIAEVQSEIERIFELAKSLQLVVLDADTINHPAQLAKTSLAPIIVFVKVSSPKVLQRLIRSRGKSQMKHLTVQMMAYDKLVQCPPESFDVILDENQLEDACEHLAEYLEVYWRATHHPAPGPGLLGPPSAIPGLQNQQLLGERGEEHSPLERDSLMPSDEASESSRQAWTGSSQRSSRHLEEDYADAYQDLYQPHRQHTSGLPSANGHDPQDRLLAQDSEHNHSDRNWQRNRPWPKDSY
T1 sequence (P54289 25-956 partner limits assumed): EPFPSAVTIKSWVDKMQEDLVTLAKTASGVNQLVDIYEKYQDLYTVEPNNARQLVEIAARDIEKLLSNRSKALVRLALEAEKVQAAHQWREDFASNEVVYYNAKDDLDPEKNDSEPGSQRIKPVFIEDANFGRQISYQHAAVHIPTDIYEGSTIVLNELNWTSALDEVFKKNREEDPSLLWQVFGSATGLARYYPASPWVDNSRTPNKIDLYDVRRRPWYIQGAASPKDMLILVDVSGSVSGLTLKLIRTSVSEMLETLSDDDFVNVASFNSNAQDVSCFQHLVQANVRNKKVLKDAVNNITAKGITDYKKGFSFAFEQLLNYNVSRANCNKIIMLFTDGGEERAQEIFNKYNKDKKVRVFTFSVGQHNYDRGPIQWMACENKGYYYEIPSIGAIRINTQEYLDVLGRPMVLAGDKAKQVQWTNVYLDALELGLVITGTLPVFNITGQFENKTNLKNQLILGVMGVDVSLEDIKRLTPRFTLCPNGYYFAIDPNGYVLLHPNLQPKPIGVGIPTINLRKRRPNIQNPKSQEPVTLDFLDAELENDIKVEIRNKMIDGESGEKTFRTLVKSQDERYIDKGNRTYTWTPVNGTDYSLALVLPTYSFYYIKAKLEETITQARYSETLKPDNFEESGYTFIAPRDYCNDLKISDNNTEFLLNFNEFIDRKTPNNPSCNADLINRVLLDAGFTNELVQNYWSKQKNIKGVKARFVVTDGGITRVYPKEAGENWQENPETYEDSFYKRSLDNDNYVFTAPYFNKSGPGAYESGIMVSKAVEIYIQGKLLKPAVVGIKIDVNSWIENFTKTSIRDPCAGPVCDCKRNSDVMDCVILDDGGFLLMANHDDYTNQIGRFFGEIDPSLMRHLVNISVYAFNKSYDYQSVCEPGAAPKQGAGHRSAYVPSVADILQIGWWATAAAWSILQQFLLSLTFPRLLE
T1 sequence (P54289 957-1103 partner limits assumed): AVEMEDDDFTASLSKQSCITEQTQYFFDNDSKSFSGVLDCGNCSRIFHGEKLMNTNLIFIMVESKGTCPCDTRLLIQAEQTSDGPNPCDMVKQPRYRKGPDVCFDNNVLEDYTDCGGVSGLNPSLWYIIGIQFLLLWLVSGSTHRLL

`COc1cnccc1-c1nc(C2CC(C)(C)OC(C)(C)C2)cn1-c1ccc(F)c(F)c1` [Compound 33, 4-(1-(3,4-difluorophenyl)-4-(2,2,6,6-tetramethyltetrahydro-2H-pyran-4-yl)-1H-imidazol-2-yl)-3-methoxypyridine]: the IC50 on human N-type Ca channel [1] is 0.459 µM; against human N-type Ca channel [2] (setting [3]), above 1 µM; at human N-type Ca channel [2] (setting [4]), above 1 µM.

Turning to `COc1cc(-n2cc(C3CC(C)(C)OC(C)(C)C3)nc2-c2ccccc2OC)ccc1C#N` [Compound 34, 2-methoxy-4-(2-(2-methoxyphenyl)-4-(2,2,6,6-tetramethyltetrahydro-2H-pyran-4-yl)-1H-imidazol-1-yl)benzonitrile], the figures for the IC50 on human N-type Ca channel [1] and at human N-type Ca channel [2] (setting [4]) were 1.62 µM and above 1 µM, respectively.

As for `COc1ccccc1-c1nc(C2CC(C)(C)OC(C)(C)C2)cn1-c1ccc(C#N)cc1F` [Compound 36, 3-fluoro-4-(2-(2-methoxyphenyl)-4-(2,2,6,6-tetramethyltetrahydro-2H-pyran-4-yl)-1H-imidazol-1-yl)benzonitrile], the IC50 at human N-type Ca channel [1] is 0.04 µM; on human N-type Ca channel [2] (setting [3]) it was 0.376 µM; on human N-type Ca channel [2] (setting [4]), above 1 µM.

Turning to `COc1ccc(-n2cc(C3CC(C)(C)OC(C)(C)C3)nc2-c2ccccc2OC)cc1C#N` [Compound 37, 2-methoxy-5-(2-(2-methoxyphenyl)-4-(2,2,6,6-tetramethyltetrahydro-2H-pyran-4-yl)-1H-imidazol-1-yl)benzonitrile], the 50% inhibitory concentration (IC50) on human N-type Ca channel [1] is 0.424 µM; on human N-type Ca channel [2] (setting [5]), above 1 µM; at human N-type Ca channel [2] (setting [4]) it was above 1 µM.

As for `COc1ccccc1-c1nc(C2CC(C)(C)OC(C)(C)C2)cn1-c1ccc(Cl)cn1` [Compound 39, 5-chloro-2-(2-(2-methoxyphenyl)-4-(2,2,6,6-tetramethyltetrahydro-2H-pyran-4-yl)-1H-imidazol-1-yl)pyridine], the IC50 on human N-type Ca channel [1] was 0.163 µM; against human N-type Ca channel [2] (setting [6]), 1.7 µM; against human N-type Ca channel [2] (setting [7]) it was 1.9 µM.

On to `COc1ncccc1-c1nc(C2CC(C)(C)OC(C)(C)C2)cn1-c1ccc(F)c(F)c1` [Compound 40, 3-(1-(3,4-difluorophenyl)-4-(2,2,6,6-tetramethyltetrahydro-2H-pyran-4-yl)-1H-imidazol-2-yl)-2-methoxypyridine], for which the IC50 on human N-type Ca channel [1] is 0.822 µM; on human N-type Ca channel [2] (setting [7]) it was 1.94 µM. Also, on human N-type Ca channel [2], the inhibition at 10 µM amounted to 52%.

With `COc1ccccc1-c1nc(C2CC(C)(C)OC(C)(C)C2)cn1-c1ccc(Cl)c(F)c1` [Compound 41, 1-(4-chloro-3-fluorophenyl)-2-(2-methoxyphenyl)-4-(2,2,6,6-tetramethyltetrahydro-2H-pyran-4-yl)-1H-imidazole], the IC50 at human N-type Ca channel [1] came out at 0.131 µM; at human N-type Ca channel [2] (setting [7]), 0.602 µM. In addition, the inhibition at 10 µM on human N-type Ca channel [2] stood at 71%.

As to `COc1ccccc1-c1nc(C2CC(C)(C)OC(C)(C)C2)cn1-c1ccc(F)c(F)c1` [Compound 42, 1-(31,4-difluorophenyl)-2-(2-methoxyphenyl)-4-(2,2,6,6-tetramethyltetrahydro-2H-pyran-4-yl)-1H-imidazole], the IC50 on human N-type Ca channel [1] was found to be 0.194 µM; against human N-type Ca channel [2] (setting [6]), 2.6 µM; at human N-type Ca channel [2] (setting [7]), 1.08 µM.

On to `COc1ncccc1-c1nc(C2CC(C)(C)OC(C)(C)C2)cn1-c1ccc(C#N)cc1` [Compound 43, 4-(2-(2-methoxypyridin-3-yl)-4-(2,2,6,6-tetramethyltetrahydro-2H-pyran-4-yl)-1H-imidazol-1-yl)benzonitrile], for which the IC50 was determined as 0.291 µM on human N-type Ca channel [1] and 7.5 µM at human N-type Ca channel [2] (setting [7]). Further, the inhibition at 10 µM on human N-type Ca channel [2] came out at 34%.

Consider `COc1ncccc1-c1nc(C2CC(C)(C)OC(C)(C)C2)cn1-c1ccc(Cl)c(F)c1` [Compound 44, 3-(1-(4-chloro-3-fluorophenyl)-4-(2,2,6,6-tetramethyltetrahydro-2H-pyran-4-yl)-1H-imidazol-2-yl)-2-methoxypyridine], for which the half-maximal inhibitory concentration (IC50) at human N-type Ca channel [1] is 0.142 µM; against human N-type Ca channel [2] (setting [6]) it was 2.9 µM; on human N-type Ca channel [2] (setting [7]) it was 3.08 µM.

In the case of `COc1ccccc1-c1nc(C2CC(C)(C)OC(C)(C)C2)cn1-c1ccc(F)c(Cl)c1` [Compound 45, 1-(3-chloro-4-fluorophenyl)-2-(2-methoxyphenyl)-4-(2,2,6,6-tetramethyltetrahydro-2H-pyran-4-yl)-1H-imidazole], the half-maximal inhibitory concentration (IC50) at human N-type Ca channel [1] was determined as 0.149 µM; on human N-type Ca channel [2] (setting [6]) it was 2.2 µM; on human N-type Ca channel [2] (setting [7]), 0.671 µM.

Regarding `COc1ncccc1-c1nc(C2CC(C)(C)OC(C)(C)C2)cn1-c1ccc(F)c(Cl)c1` [Compound 46, 3-(1-(3-chloro-4-fluorophenyl)-4-(2,2,6,6-tetramethyltetrahydro-2H-pyran-4-yl)-1H-imidazol-2-yl)-2-methoxypyridine], the IC50 at human N-type Ca channel [1] was found to be 0.255 µM; on human N-type Ca channel [2] (setting [7]), 2.5 µM.

Regarding `COc1nccnc1-c1nc(C2CC(C)(C)OC(C)(C)C2)cn1-c1ccc(F)cc1` [Compound 47, 2-(1-(4-fluorophenyl)-4-(2,2,6,6-tetramethyltetrahydro-2H-pyran-4-yl)-1H-imidazol-2-yl)-3-methoxypyrazine], the half-inhibitory concentration (IC50) at human N-type Ca channel [1] was 1.54 µM; at human N-type Ca channel [2] (setting [3]), above 1 µM; on human N-type Ca channel [2] (setting [4]) it was above 1 µM.

Consider `COc1ncccc1-c1nc(C2CC(C)(C)OC(C)(C)C2)cn1-c1cccc(C#N)c1` [Compound 48, 3-(2-(2-methoxypyridin-3-yl)-4-(2,2,6,6-tetramethyltetrahydro-2H-pyran-4-yl)-1H-imidazol-1-yl)benzonitrile], for which the IC50 was determined as 5.41 µM on human N-type Ca channel [1], 0.222 µM against human N-type Ca channel [2] (setting [3]) and 0.843 µM against human N-type Ca channel [2] (setting [8]).

Turning to `COc1ncncc1-c1nc(C2CC(C)(C)OC(C)(C)C2)cn1-c1ccc(Cl)cc1` [Compound 49, 5-(1-(4-chlorophenyl)-4-(2,2,6,6-tetramethyltetrahydro-2H-pyran-4-yl)-1H-imidazol-2-yl)-4-methoxypyrimidine], the figures for the half-inhibitory concentration (IC50) on human N-type Ca channel [1], on human N-type Ca channel [2] (setting [3]) and at human N-type Ca channel [2] (setting [4]) were 0.123 µM, above 1 µM and above 1 µM, respectively.

`COc1nccnc1-c1nc(C2CC(C)(C)OC(C)(C)C2)cn1-c1ccc(Cl)cc1` [Compound 50, 2-(1-(4-chlorophenyl)-4-(2,2,6,6-tetramethyltetrahydro-2H-pyran-4-yl)-1H-imidazol-2-yl)-3-methoxypyrazine]: the IC50 at human N-type Ca channel [1] is 0.215 µM; at human N-type Ca channel [2] (setting [3]), above 1 µM; at human N-type Ca channel [2] (setting [8]), 0.971 µM.

`CCOc1ncccc1-c1nc(C2CC(C)(C)OC(C)(C)C2)cn1-c1ccc(Cl)cc1` [Compound 51, 3-(1-(4-chlorophenyl)-4-(2,2,6,6-tetramethyltetrahydro-2H-pyran-4-yl)-1H-imidazol-2-yl)-2-ethoxypyridine]: the concentration for half-maximal inhibition (IC50) at human N-type Ca channel [1] stood at 0.029 µM; on human N-type Ca channel [2] (setting [3]), 0.179 µM; against human N-type Ca channel [2] (setting [8]), 0.701 µM.

In the case of `CCOc1ncccc1-c1nc(C2CC(C)(C)OC(C)(C)C2)cn1-c1ccc(F)c(F)c1` [Compound 52, 3-(1-(3,4-difluorophenyl)-4-(2,2,6,6-tetramethyltetrahydro-2H-pyran-4-yl)-1H-imidazol-2-yl)-2-ethoxypyridine], the IC50 is 0.115 µM at human N-type Ca channel [1], 0.721 µM against human N-type Ca channel [2] (setting [3]) and above 1 µM on human N-type Ca channel [2] (setting [4]).

Take `COc1ccccc1-c1nc(C2CC(C)(C)OC(C)(C)C2)cn1-c1ccc(C(F)(F)F)nc1` [Compound 53, 5-(2-(2-methoxyphenyl)-4-(2,2,6,6-tetramethyltetrahydro-2H-pyran-4-yl)-1H-imidazol-1-yl)-2-(trifluoromethyl)pyridine]: the 50% inhibitory concentration (IC50) on human N-type Ca channel [1] turned out to be 0.096 µM; on human N-type Ca channel [2] (setting [6]), 6.5 µM; against human N-type Ca channel [2] (setting [7]), 2.01 µM.

Regarding `COc1ncccc1-c1nc(C2CC(C)(C)OC(C)(C)C2)cn1-c1ccc(C(F)(F)F)nc1` [Compound 54, 2-methoxy-3-(4-(2,2,6,6-tetramethyltetrahydro-2H-pyran-4-yl)-1-(6-(trifluoromethyl)pyridin-3-yl)-1H-imidazol-2-yl)pyridine], the values for the 50% inhibitory concentration (IC50) on human N-type Ca channel [1], at human N-type Ca channel [2] (setting [3]) and against human N-type Ca channel [2] (setting [8]) were 1.96 µM, 0.302 µM and 0.237 µM, respectively. At human N-type Ca channel [2] (Pulse=1, concentration range 0.01-1 µM), the “N Type IC50 Data Qpatch Pulse=1” value is “Poor fit”. Besides, on human N-type Ca channel [2] (Pulse=15, concentration range 0.01-1 µM), the “N Type IC50 Data Qpatch Pulse=15” value is on record as “Poor fit”.

Regarding `CC1(C)CC(c2cn(-c3ccc(Cl)cc3)c(CC3CC3)n2)CC(C)(C)O1` [Compound 55, 1-(4-chlorophenyl)-2-(cyclopropylmethyl)-4-(2,2,6,6-tetramethyltetrahydro-2H-pyran-4-yl)-1H-imidazole], the half-maximal inhibitory concentration (IC50) at human N-type Ca channel [1] is 0.384 µM; on human N-type Ca channel [2] (setting [8]) it was 0.78 µM.

For `CC1(C)CC(c2cn(-c3ccc(Cl)cc3)c(C3CC3)n2)CC(C)(C)O1` [Compound 56, 1-(4-chlorophenyl)-2-cyclopropyl-4-(2,2,6,6-tetramethyltetrahydro-2H-pyran-4-yl)-1H-imidazole], the values for the half-inhibitory concentration (IC50) at human N-type Ca channel [1], at human N-type Ca channel [2] (setting [5]) and on human N-type Ca channel [2] (setting [4]) were 1.67 µM, above 1 µM and above 1 µM, respectively.

In the case of `CC1(C)CC(c2cn(-c3ccc(C#N)cc3)c(C3CC3)n2)CC(C)(C)O1` [Compound 57, 4-(2-cyclopropyl-4-(2,2,6,6-tetramethyltetrahydro-2H-pyran-4-yl)-1H-imidazol-1-yl)benzonitrile], the IC50 is 10 µM at human N-type Ca channel [1], above 1 µM on human N-type Ca channel [2] (setting [5]) and above 1 µM at human N-type Ca channel [2] (setting [4]).

The record behind these values is patent EP3033337B1, “SUBSTITUTED IMIDAZOLES AS N-TYPE CALCIUM CHANNEL BLOCKERS” (Janssen Pharmaceutica NV, priority 2013, dated 2015).
